29 substances from the OligoGym collection can be followed below.

For the series, the target named is HBV. Conditions: ASO.

“And” between values parts separate entries of the source, which are not always exact repeats. Equal entries are not always repeated. HELM strings list units from the 5' end as sugar, base in round brackets, then linkage (d deoxyribose, r ribose, m 2'-O-methyl, p phosphodiester). Methylation of C is not given here. [moe] = 2'-O-(2-methoxyethyl) (MOE); [cEt] = constrained ethyl (cEt); [sp] = phosphorothioate linkage

Consider “RNA1{[moe](C)[sp].[moe](A)[sp].d(C)[sp].d(T)[sp].d(A)[sp].d(G)[sp].d(T)[sp].d(A)[sp].d(A)[sp].d(A)[sp].d(C)[sp].[moe](T)[sp].[moe](G)[sp].[moe](A)[sp].[moe](G)[sp].[moe](C)[sp].[moe](C)}$$$$V2.0”, for which the target mRNA inhibition (HepG2, 0.07 µM) was 73% and 66%.
Turning to “RNA1{[moe](C)[sp].[moe](T)[sp].[moe](A)[sp].[moe](G)[sp].d(T)[sp].d(A)[sp].d(A)[sp].d(A)[sp].d(C)[sp].d(T)[sp].d(G)[sp].d(A)[sp].d(G)[sp].[moe](C)[sp].[moe](C)[sp].[moe](A)}$$$$V2.0”, where the note is “HepG2, 0.07 µM”, the target mRNA inhibition is 66% and 65%.
Regarding “RNA1{[moe](T)[sp].[moe](T)[sp].[moe](T)[sp].d(A)[sp].d(T)[sp].d(G)[sp].d(C)[sp].d(C)[sp].d(T)[sp].d(A)[sp].d(C)[sp].d(A)[sp].d(G)[sp].[cEt](C)[sp].[cEt](C)[sp].[cEt](T)}$$$$V2.0”, the target mRNA inhibition (HepG2, 0.07 µM) is 45% and 55%.
Turning to “RNA1{[moe](A)[sp].[moe](G)[sp].d(C)[sp].d(G)[sp].d(A)[sp].d(A)[sp].d(G)[sp].d(T)[sp].d(G)[sp].d(C)[sp].d(A)[sp].[moe](C)[sp].[moe](A)[sp].[moe](C)[sp].[moe](G)[sp].[moe](G)}$$$$V2.0”, the target mRNA inhibition reads like this: (HepG2, 0.0092593 µM) 0%; (HepG2, 0.0277778 µM) 30%; (HepG2, 0.07 µM) 79% and 73%; (HepG2, 0.0833333 µM) 72%; (HepG2, 0.25 µM) 84%.
Consider “RNA1{[moe](C)[sp].[moe](A)[sp].[moe](C)[sp].[moe](T)[sp].d(A)[sp].d(G)[sp].d(T)[sp].d(A)[sp].d(A)[sp].d(A)[sp].d(C)[sp].d(T)[sp].d(G)[sp].[moe](A)[sp].[moe](G)[sp].[moe](C)}$$$$V2.0”, for which, where the note is “HepG2, 0.07 µM”, the target mRNA inhibition was 56% and 50%.
“RNA1{[moe](G)[sp].[cEt](T)[sp].[cEt](G)[sp].d(A)[sp].d(A)[sp].d(G)[sp].d(C)[sp].d(G)[sp].d(A)[sp].d(A)[sp].d(G)[sp].d(T)[sp].d(G)[sp].[cEt](C)[sp].[cEt](A)[sp].[moe](C)}$$$$V2.0”: the target mRNA inhibition (HepG2, 0.07 µM) is 68% and 75%.
For “RNA1{[moe](A)[sp].[moe](T)[sp].[moe](T)[sp].[moe](T)[sp].d(A)[sp].d(T)[sp].d(G)[sp].d(C)[sp].d(C)[sp].d(T)[sp].d(A)[sp].d(C)[sp].d(A)[sp].[moe](G)[sp].[moe](C)[sp].[moe](C)[sp].[moe](T)}$$$$V2.0”, the target mRNA inhibition (HepG2, 0.07 µM) was 58% and 42%.
With “RNA1{[moe](G)[sp].[moe](A)[sp].d(A)[sp].d(G)[sp].d(C)[sp].d(G)[sp].d(A)[sp].d(A)[sp].d(G)[sp].d(T)[sp].d(G)[sp].[moe](C)[sp].[moe](A)[sp].[moe](C)[sp].[moe](A)[sp].[moe](C)}$$$$V2.0”, the target mRNA inhibition (HepG2, 0.0092593 µM) stood at 9%; the target mRNA inhibition (HepG2, 0.0277778 µM) was found to be 34%; the target mRNA inhibition (HepG2, 0.07 µM) was 71% and 64%; the target mRNA inhibition (HepG2, 0.0833333 µM) is 53%; the target mRNA inhibition (HepG2, 0.25 µM) amounted to 81%.
For “RNA1{[moe](A)[sp].[moe](C)[sp].[moe](G)[sp].d(T)[sp].d(G)[sp].d(C)[sp].d(A)[sp].d(G)[sp].d(A)[sp].d(G)[sp].d(G)[sp].d(T)[sp].[moe](G)[sp].[moe](A)[sp].[moe](A)[sp].[moe](G)}$$$$V2.0”, under “HepG2, 0.07 µM”, the target mRNA inhibition is 51% and 35%.
“RNA1{[moe](A)[sp].[cEt](C)[sp].[cEt](A)[sp].d(G)[sp].d(C)[sp].d(T)[sp].d(T)[sp].d(G)[sp].d(G)[sp].d(A)[sp].d(G)[sp].d(G)[sp].d(C)[sp].[cEt](T)[sp].[cEt](T)[sp].[moe](G)}$$$$V2.0”: the target mRNA inhibition (HepG2, 0.07 µM) was 10% and 0%.
Turning to “RNA1{[moe](C)[sp].[moe](G)[sp].[moe](T)[sp].[moe](G)[sp].[moe](C)[sp].[moe](A)[sp].d(G)[sp].d(A)[sp].d(G)[sp].d(G)[sp].d(T)[sp].d(G)[sp].d(A)[sp].d(A)[sp].d(G)[sp].[moe](C)[sp].[moe](G)}$$$$V2.0”, the target mRNA inhibition (HepG2, 0.07 µM) is 81% and 64%.
For “RNA1{[moe](T)[sp].[moe](G)[sp].[moe](A)[sp].[moe](A)[sp].[moe](G)[sp].d(C)[sp].d(G)[sp].d(A)[sp].d(A)[sp].d(G)[sp].d(T)[sp].d(G)[sp].d(C)[sp].d(A)[sp].[moe](C)[sp].[moe](A)}$$$$V2.0”, the target mRNA inhibition (HepG2, 0.07 µM) was 59% and 47%.
With “RNA1{[moe](T)[sp].[moe](G)[sp].[moe](C)[sp].d(A)[sp].d(G)[sp].d(A)[sp].d(G)[sp].d(G)[sp].d(T)[sp].d(G)[sp].d(A)[sp].d(A)[sp].[moe](G)[sp].[moe](C)[sp].[moe](G)[sp].[moe](A)[sp].[moe](A)}$$$$V2.0”, under “HepG2, 0.07 µM”, the target mRNA inhibition was 75% and 63%.
For the substance “RNA1{[moe](G)[sp].[moe](T)[sp].d(T)[sp].d(C)[sp].d(C)[sp].d(G)[sp].d(C)[sp].d(A)[sp].d(G)[sp].d(T)[sp].d(A)[sp].[moe](T)[sp].[moe](G)[sp].[moe](G)[sp].[moe](A)[sp].[moe](T)}$$$$V2.0”, for the setting “HepG2, 0.07 µM”, the target mRNA inhibition was 56% and 55%.
On the same count and under the same terms, as for “RNA1{[moe](G)[sp].[moe](C)[sp].[moe](A)[sp].[moe](G)[sp].d(T)[sp].d(A)[sp].d(T)[sp].d(G)[sp].d(G)[sp].d(A)[sp].d(T)[sp].d(C)[sp].d(G)[sp].[moe](G)[sp].[moe](C)[sp].[moe](A)}$$$$V2.0”, the figure is 69% and 61%; as for “RNA1{[moe](T)[sp].[moe](G)[sp].[moe](C)[sp].d(A)[sp].d(G)[sp].d(A)[sp].d(G)[sp].d(G)[sp].d(T)[sp].d(G)[sp].d(A)[sp].d(A)[sp].d(G)[sp].[cEt](C)[sp].[cEt](G)[sp].[cEt](A)}$$$$V2.0”, 78% and 79%; as for “RNA1{[moe](G)[sp].[moe](G)[sp].d(C)[sp].d(A)[sp].d(T)[sp].d(A)[sp].d(G)[sp].d(C)[sp].d(A)[sp].d(G)[sp].d(C)[sp].[moe](A)[sp].[moe](G)[sp].[moe](G)[sp].[moe](A)[sp].[moe](T)[sp].[moe](G)}$$$$V2.0”, 55% and 48%.
In the case of “RNA1{[moe](A)[sp].[moe](C)[sp].[moe](C)[sp].d(A)[sp].d(C)[sp].d(T)[sp].d(G)[sp].d(A)[sp].d(A)[sp].d(C)[sp].d(A)[sp].d(A)[sp].[moe](A)[sp].[moe](T)[sp].[moe](G)[sp].[moe](G)}$$$$V2.0”, under “HepG2, 0.07 µM”, the target mRNA inhibition is 0% and 3%.
In the case of “RNA1{[moe](A)[sp].[moe](T)[sp].d(T)[sp].d(T)[sp].d(A)[sp].d(T)[sp].d(G)[sp].d(C)[sp].d(C)[sp].d(T)[sp].d(A)[sp].[moe](C)[sp].[moe](A)[sp].[moe](G)[sp].[moe](C)[sp].[moe](C)[sp].[moe](T)}$$$$V2.0”, the target mRNA inhibition is, setting by setting: (HepG2, 0.0092593 µM) 0%; (HepG2, 0.0277778 µM) 21%; (HepG2, 0.07 µM) 71% and 65%; (HepG2, 0.0833333 µM) 22%; (HepG2, 0.25 µM) 53%.
In the case of “RNA1{[moe](T)[sp].[cEt](G)[sp].[cEt](A)[sp].d(G)[sp].d(G)[sp].d(C)[sp].d(C)[sp].d(C)[sp].d(A)[sp].d(C)[sp].d(T)[sp].d(C)[sp].d(C)[sp].[cEt](C)[sp].[cEt](A)[sp].[moe](T)}$$$$V2.0”, for the setting “HepG2, 0.07 µM”, the target mRNA inhibition was 56% and 80%.
“RNA1{[moe](A)[sp].[moe](A)[sp].d(G)[sp].d(C)[sp].d(G)[sp].d(A)[sp].d(A)[sp].d(G)[sp].d(T)[sp].d(G)[sp].d(C)[sp].[moe](A)[sp].[moe](C)[sp].[moe](A)[sp].[moe](C)[sp].[moe](G)}$$$$V2.0”: where the note is “HepG2, 0.07 µM”, the target mRNA inhibition was 70% and 68%.
With “RNA1{[moe](A)[sp].[moe](A)[sp].d(C)[sp].d(C)[sp].d(A)[sp].d(C)[sp].d(T)[sp].d(G)[sp].d(A)[sp].d(A)[sp].d(C)[sp].[moe](A)[sp].[moe](A)[sp].[moe](A)[sp].[moe](T)[sp].[moe](G)}$$$$V2.0”, the target mRNA inhibition (HepG2, 0.07 µM) was 15% and 0%.
Take “RNA1{[moe](T)[sp].[moe](G)[sp].[moe](A)[sp].d(G)[sp].d(A)[sp].d(G)[sp].d(A)[sp].d(A)[sp].d(G)[sp].d(T)[sp].d(C)[sp].d(C)[sp].d(A)[sp].[cEt](C)[sp].[cEt](C)[sp].[cEt](A)}$$$$V2.0”: the target mRNA inhibition (HepG2, 0.07 µM) was 35% and 41%.
The substance “RNA1{[moe](A)[sp].[moe](C)[sp].d(T)[sp].d(A)[sp].d(G)[sp].d(T)[sp].d(A)[sp].d(A)[sp].d(A)[sp].d(C)[sp].d(T)[sp].[moe](G)[sp].[moe](A)[sp].[moe](G)[sp].[moe](C)[sp].[moe](C)[sp].[moe](A)}$$$$V2.0” showed a target mRNA inhibition (HepG2, 0.07 µM) of 61%.
Consider “RNA1{[moe](A)[sp].[moe](G)[sp].d(G)[sp].d(C)[sp].d(A)[sp].d(T)[sp].d(A)[sp].d(G)[sp].d(C)[sp].d(A)[sp].d(G)[sp].[moe](C)[sp].[moe](A)[sp].[moe](G)[sp].[moe](G)[sp].[moe](A)}$$$$V2.0”, for which, where the note is “HepG2, 0.07 µM”, the target mRNA inhibition was 57% and 51%.
“RNA1{[moe](A)[sp].[moe](G)[sp].[moe](A)[sp].[moe](T)[sp].[moe](G)[sp].d(A)[sp].d(G)[sp].d(G)[sp].d(C)[sp].d(A)[sp].d(T)[sp].d(A)[sp].d(G)[sp].d(C)[sp].[moe](A)[sp].[moe](G)[sp].[moe](C)}$$$$V2.0”: the target mRNA inhibition (HepG2, 0.07 µM) was 41% and 34%.
On to “RNA1{[moe](G)[sp].[moe](A)[sp].[moe](A)[sp].[moe](C)[sp].[moe](C)[sp].[moe](A)[sp].d(C)[sp].d(T)[sp].d(G)[sp].d(A)[sp].d(A)[sp].d(C)[sp].d(A)[sp].d(A)[sp].d(A)[sp].[moe](T)[sp].[moe](G)}$$$$V2.0”, for which the target mRNA inhibition (HepG2, 0.07 µM) was 53% and 43%.
Take “RNA1{[moe](A)[sp].[moe](C)[sp].[moe](C)[sp].[moe](A)[sp].[moe](C)[sp].[moe](T)[sp].d(G)[sp].d(A)[sp].d(A)[sp].d(C)[sp].d(A)[sp].d(A)[sp].d(A)[sp].d(T)[sp].d(G)[sp].[moe](G)[sp].[moe](C)}$$$$V2.0”: the target mRNA inhibition (HepG2, 0.07 µM) is 59% and 42%.
In the case of “RNA1{[moe](A)[sp].[cEt](C)[sp].[cEt](G)[sp].d(G)[sp].d(G)[sp].d(C)[sp].d(A)[sp].d(A)[sp].d(C)[sp].d(A)[sp].d(T)[sp].d(A)[sp].d(C)[sp].[cEt](C)[sp].[cEt](T)[sp].[moe](T)}$$$$V2.0”, the target mRNA inhibition is, setting by setting: (HepG2, 0.0092593 µM) 38%; (HepG2, 0.0277778 µM) 73%; (HepG2, 0.07 µM) 63% and 88%; (HepG2, 0.0833333 µM) 87%; (HepG2, 0.25 µM) 92%.
